Reference: paper PMC13316043, “Structural basis of NSD2 degradation via targeted recruitment of SCF-FBXO22” (Nature Communications, 2026)

Assays:
NSD2 = target: T1, NSD2 (Homo sapiens, UniProt O96028); assay: Western blot of NSD2 in U2OS cells; type: cell-based; details: 300 nM, 6 h
T1 construct: endogenous in cells; host or cells: U2OS (ATCC)
T1 sequence (O96028 1-1365): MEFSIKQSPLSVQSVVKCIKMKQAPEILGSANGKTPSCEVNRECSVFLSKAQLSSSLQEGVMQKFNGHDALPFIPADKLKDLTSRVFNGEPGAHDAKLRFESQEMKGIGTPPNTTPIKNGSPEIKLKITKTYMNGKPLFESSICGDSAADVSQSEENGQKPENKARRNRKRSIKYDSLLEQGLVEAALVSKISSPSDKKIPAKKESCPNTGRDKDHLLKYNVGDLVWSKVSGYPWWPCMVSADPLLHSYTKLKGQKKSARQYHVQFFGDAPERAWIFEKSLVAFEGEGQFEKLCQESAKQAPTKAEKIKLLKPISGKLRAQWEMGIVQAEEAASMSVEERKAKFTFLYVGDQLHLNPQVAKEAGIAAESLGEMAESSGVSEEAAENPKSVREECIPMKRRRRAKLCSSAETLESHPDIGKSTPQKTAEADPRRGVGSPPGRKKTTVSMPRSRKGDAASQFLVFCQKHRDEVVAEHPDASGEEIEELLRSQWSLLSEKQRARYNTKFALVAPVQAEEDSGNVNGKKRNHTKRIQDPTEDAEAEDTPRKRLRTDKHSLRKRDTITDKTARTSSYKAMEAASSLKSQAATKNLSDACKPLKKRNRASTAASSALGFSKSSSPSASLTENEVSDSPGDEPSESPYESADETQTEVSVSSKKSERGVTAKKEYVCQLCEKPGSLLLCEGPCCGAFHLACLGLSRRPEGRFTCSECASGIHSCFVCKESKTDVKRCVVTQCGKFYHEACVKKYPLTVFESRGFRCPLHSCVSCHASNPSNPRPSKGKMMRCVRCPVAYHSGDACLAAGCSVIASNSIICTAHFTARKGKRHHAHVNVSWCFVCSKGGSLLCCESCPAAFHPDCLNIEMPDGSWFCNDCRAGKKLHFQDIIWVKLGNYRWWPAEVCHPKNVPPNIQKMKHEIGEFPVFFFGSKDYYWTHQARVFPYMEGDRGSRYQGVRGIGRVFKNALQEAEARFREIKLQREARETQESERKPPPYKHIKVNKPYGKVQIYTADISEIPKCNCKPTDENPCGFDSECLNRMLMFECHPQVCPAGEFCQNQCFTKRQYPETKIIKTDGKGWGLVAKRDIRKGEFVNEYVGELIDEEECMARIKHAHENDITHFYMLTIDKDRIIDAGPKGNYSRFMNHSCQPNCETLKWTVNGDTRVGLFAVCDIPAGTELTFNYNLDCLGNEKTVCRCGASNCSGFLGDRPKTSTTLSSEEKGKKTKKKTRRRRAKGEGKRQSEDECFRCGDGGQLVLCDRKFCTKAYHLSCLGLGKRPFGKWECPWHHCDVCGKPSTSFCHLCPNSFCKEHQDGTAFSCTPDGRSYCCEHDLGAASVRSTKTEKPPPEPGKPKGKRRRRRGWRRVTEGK
Description: HEK293T and U2OS were obtained from ATCC and cultured in high-glucose-containing Dulbecco’s Modified Eagle’s Medium (DMEM; Gibco; cat. #11995) supplemented with 10% fetal bovine serum (VWR) and 1% penicillin/streptomycin (Gibco). Cells were treated with either UNC10415667, UNC12149, UNC12567, hemin (Sigma; cat. #H9039), or DMSO control for the indicated times and analyzed by western blot using standard procedures. Briefly, cells were lysed on ice for 15 min in NETN lysis buffer (20 mM Tris pH 8.0, 100 mM NaCl, 0.5 mM EDTA, 0.5% NP40) supplemented with 10 µg/mL aprotinin, 10 µg/mL leupeptin, 10 µg/mL pepstatin A, 1 mM sodium orthovanadate, 1 mM sodium fluoride, and 1 mM AEBSF (4-[two aminoethyl] benzenesulfonyl fluoride). Cell lysates were centrifuged at 20,000×g in a benchtop microcentrifuge at 4 °C for 10 min. Protein concentration was determined by Bradford assay (Bio-Rad; cat. #5000006). Protein concentration was normalized using Laemmli buffer. Samples were heated for 5 min at 95°C in a dry water-bath. Samples were separated on TGX stain free gels (Bio-Rad) transferred to nitrocellulose membrane and blocked in 5% non-fat dry milk (Biorad; cat. #1706404) diluted in 1x TBS-T (137 mM NaCl, 2.7 mM KCl, 25 mM Tris pH 7.6, 1% Tween-20). […]

U2OS cells = assay: CellTiter-Glo cell viability assay; type: cell-based, human; details: 1 µM, 6 h
Description: The cell viability of NSD2 HiBiT U2OS P112 and parental U2OS cell lines treated with NSD2 degrader was determined by the CellTiter-Glo 2.0 Cell Viability Assay (Promega, G9242). 384-well plates (Corning) with cells and the reagent were equilibrated to the room temperature before detection. The reagent was added to the assay plate according to the product instruction and allowed to incubate on an orbital shaker for 3 min at room temperature before subjecting the plate to the GloMax luminometer (Promega). The data and graphs were then analyzed and generated using GraphPad Prism (v 10.4.1)

| NSD2 level by western blot (NSD2) | Structure (SMILES) | cell viability (U2OS cells) |
| --- | --- | --- |
| undetectable | Cc1cc(C=O)ccc1C(=O)N1CCc2cc(NC(=O)c3ccc(CN(C(=O)c4ccc5c(c4)OCC(=O)N5)C4CC4)cc3)ccc2C1 [UNC12149] | – |
| – | O=Cc1ccc(C(=O)N2CCc3cc(NC(=O)c4ccc(CN(C(=O)c5ccc6c(c5)OCC(=O)N6)C5CC5)cc4)ccc3C2)cc1 [UNC10415667] | did not impact cell viability |
